Measurements taken from patent publication US20240415826A1, “[…] OF A GENE ENCODING AN […] BY TREATING A HUMAN SUBJECT WITH A NITROXIDE” (priority 2021, published 2024).

Tests used:
UCP2 [1] = assay: Effects of Tempol on gene expression in cardiac tissue of mice, chip-based microarray; assay type: in vivo; details: 5 mg/g of food from 14 to 31 months after birth
Procedure: To assess the effects of Tempol on gene expression, Tempol was administered to experimental mice at a dose of 5 mg/g of food from 14 months to 31 months after birth. Mice receiving the same food without the addition of Tempol were used as a negative control. At the age of 31 months, the experimental animals were sacrificed and the hearts were surgically removed. The expression of a broad spectrum of genes in the cardiac tissue was assessed using chip-based microarray technology. Such chips are well known in the art and are widely used to assess gene expression.

UCP2 [2] = assay: Treating a human subject with Tempol, serum level of UCP2 following treatment; assay type: in vivo; details: 2000 mg per day for 180 days
Procedure: (§1) A 70-kilogram human subject over the age of 65 is identified as having, or known to have, or suspected of having an increased expression level of UCP2. The human subject is administered a dose of 2000 mg of Tempol (or another nitroxide antioxidant) per day for 180 days. This may be administered in a single dose, or may be administered as a number of smaller doses over a 24-hour period: for example, four 500-mg doses at […]. Following treatment, the serum level of UCP2, is decreased.
as §1, with “subject” for “subject over the age of 65”
as §1, with “65 and having a cardiovascular disease” for “65”, “for an increased expression level of UCP2. Or a 70-kilogram human subject over the age of 65 is” for “as having, or”, “have a cardiovascular disease and/or” for “have, or suspected of having an”
as §1, with “at risk” for “over the age”, “developing colorectal cancer” for “65”, “for increased expression level of UCP2. Or a 70-kilogram human subject is” for “as having, or”, “be at risk” for “have, or suspected”, “developing colorectal cancer and/or have” for “having an”
A 70-kilogram human subject at risk of developing an autoimmune disease (e.g., rheumatoid arthritis) is identified for increased expression level of UCP2. Or a 70-kilogram human subject is known to be at risk of developing an autoimmune disease and/or have increased expression level of UCP2. The human subject is administered a dose of 2000 mg of Tempol (or another nitroxide antioxidant) per day for 180 days. This may be administered in a single dose, or may be administered as a number of smaller doses over a 24-hour period: for example, four 500-mg doses at […]. Following treatment, the serum level of UCP2, is decreased.
A 70-kilogram human subject of person at risk of developing a condition due to aging is identified. Or a 70-kilogram human subject of person is known to be at risk of developing a condition. The human subject is administered a dose of 2000 mg of Tempol (or another nitroxide antioxidant) per day for 180 days. This may be administered in a single dose, or may be administered as a number of smaller doses over a 24-hour period: for example, four 500-mg doses at […]. Following treatment, the serum level of UCP2, is decreased.
A 70-kilogram human subject at risk of developing a neurodegenerative disease (e.g., Parkinson's Disease) is identified for increased expression level of UCP2. Or a 70-kilogram human subject is known to be at risk of developing a neurodegenerative disease and/or have increased expression level of UCP2. The human subject is administered a dose of 2000 mg of Tempol (or another nitroxide antioxidant) per day for 180 days. […]

CC1(C)CC(O)CC(C)(C)N1[O] [Tempol, 4-hydroxy-2,2,6,6-tetramethylpiperidine-1-oxyl]
Fold change (UCP2 expression in cardiac tissue after Tempol administration) (UCP2 [1]; hearts at 31 months, vs. same food without Tempol, P-value 0.012): −1.61
UCP2 expression in cardiac tissue (result in words) (UCP2 [1]; microarray): statistically significant decrease in expression
serum level of UCP2 following treatment (UCP2 [2]; Example 2: 70-kilogram human subject over the age of 65 with increased UCP2 expression): decreased
serum level of UCP2 following treatment (UCP2 [2]; Example 3: 70-kilogram human subject with increased UCP2 expression): decreased
serum level of UCP2 following treatment (UCP2 [2]; Example 4: human subject over the age of 65 having a cardiovascular disease): decreased
serum level of UCP2 following treatment (UCP2 [2]; Example 5: human subject at risk of developing colorectal cancer): decreased
serum level of UCP2 following treatment (UCP2 [2]; Example 6: human subject at risk of developing an autoimmune disease): decreased
serum level of UCP2 following treatment (UCP2 [2]; Example 7: human subject at risk of developing a condition due to aging): decreased
serum level of UCP2 following treatment (UCP2 [2]; Example 8: human subject at risk of developing a neurodegenerative disease): decreased
serum level of UCP2 following treatment (UCP2 [2]; Example 9: human subject having an infection): decreased
